Structures are written as SMILES. pIC50: −log10 of the molar value.

The species entered for the first assay is Mus musculus. Briefly: Hydroxyl radical scavenging activity by chemiluminescence technique in mouse thymus cells. The assay is classed as functional.
Settings: not given
`O=C([O-])CCNC12c3c4c5c6c7c8c(c9c%10c1c1c3c3c%11c4c4c5c5c7c7c%12c8c8c9c9c%10c%10c1c1c3c3c%11c%11c4c4c5c7c5c7c%12c8c8c9c9c%10c1c1c3c3c%11c4c5c4c7c8c9c1c34)C62.[Na+]` (stereo unspecified) displayed an IC50 of 147.2 uM l-1. On the same count and under the same terms, the figure for `O=C(O)c1ccccc1` [BENZOIC ACID] is 16600 uM l-1; for `NC(N)=S` [THIOUREA] it is 1200 uM l-1. In the case of `OC[C@@H](O)[C@@H](O)[C@H](O)[C@H](O)CO` [MANNITOL], the IC50 is listed as 13800 uM l-1.

Staying with this assay, now noted: Mus musculus; read-out: IC50.
As usually defined, the pIC50 is the negative decadic logarithm of the IC50, by convention in mol/L. `CN(CCC(=O)O)C12C3=c4c5c6c7c8c9c%10c%11c%12c%13c%14c%15c%16c%17c%18c%19c%20c(c4c4c5c8c(c%139)c(c%14%18)c%194)C4(NCCC(=O)O)C5=c8c9c(c-%16c%13c%14c%16c(c-%11c%11c%18c(c%19c1c(c8c(c9%14)c%19c%18%16)C34)=C(C62)C7(NCCC(=O)O)C%11%10)C%13C%12%15NCCC(=O)O)C%17C5%20NCCC(=O)O` (stereo unspecified): the negative logarithm of the IC50 (pIC50) was 4.12. As to `CN(CCC(=O)O)C12C3=C4c5c6c7c8c9c%10c%11c%12c%13c%14c%15c%16c%17c%18c(c5c8c(c%15%18)c%139)C4(NCCC(=O)O)C4C=%17C5(NCCC(=O)O)C(=C8c9c1c1c%13c%15c%17c%18c%19c%20c%21c(c8c%19c9%15)C5C=%16C%21(NCCC(=O)O)C%14C%12(NCCC(=O)O)C%20C%18(NCCC(=O)O)C%11C5(NCCC(=O)O)C%17C%13=C(C6(NCCC(=O)O)C31)C7(NCCC(=O)O)C%105)C42` (stereo unspecified), the pIC50 is 4.02.

Source of the values: ChEMBL document CHEMBL1137956, “Different hydroxyl radical scavenging activity of water-soluble beta-alanine C60 adducts” (Bioorg Med Chem Lett, 2004).
